Entries after “also recorded” stand apart in the source; their conditions may differ.
Key:
[1] = test system: female C57BL/6 mice; assay: Morris water maze spatial learning; assay type: in vivo; settings: Mars 20 mg/kg or PBN 30 mg/kg daily
Description: (§1) Ninety-six female C57BL/6 mice, ten weeks old were purchased from Harlan SD and housed individually with a reversed day/night cycle: lights on at 10 p.m. and off at 10 a.m. The mice were divided into six groups of 16 mice each: Control/Saline (CS) Control/PBN (CP), Control/Mars (CM), Runner/Saline (RS), Runner/PBN (RP) and Runner/Mars (RM). Runners were moved into a cage with a running wheel (Lafayette Instruments) for 4 hours per day, from 10 a.m. to 2 p.m. The mice received daily injections of saline, N-tert-Butyl-phenylnitrone (PBN, 30 mg/kg) or 3′- and 4′-methylated epicatechin 1:1 (Mars, 20 mg/kg).
(§2) On day 10, 7 animals from each group were given an overdose of anesthetics and perfused transcardially with cold 4% paraformaldehyde in 0.1 M PBS to study the effect of the drugs on cell proliferation. […] On day 38 the remaining mice were perfused.
To assess spatial learning the mice were trained with two trials per day over eight days on the Morris water maze as described by Morris, J. Neurosci. Methods 11: 47-60 (1984), which is incorporated herein by reference in its entirety. The platform was hidden 1 cm below the surface of water, made opaque with white non-toxic paint. The starting points were changed every day. Each trial lasted either until the mouse had found the platform or for a maximum of 40 seconds. All mice were allowed to rest on the platform for 10 seconds at the end of each trial. The latency to the platform, length of swim path and swim speed was recorded semi-automatically by a video tracking system (Ethovision, Noldus).
To assess memory function mice were trained in the water maze for 8 days with 2 trials per day between days 29-36 of the experiment. […] However, when measuring swim speed, there was also a significant difference between the groups (F(5,47)=3.37, p<0.01), raising the possibility that the RM and RP animals performed better due enhanced motor rather than cognitive skills.
To further investigate whether the RM and RP had improved learning, the swimming distance was analyzed for all trials. There was no significant difference between the groups in an overall analysis (F(5,47)=1.55, p=0.19).

[2] = test system: dentate gyrus; assay: Cell survival and neurogenesis in the dentate gyrus (BrdU labeling, day 38); assay type: in vivo; settings: mice that exercise; Mars 20 mg/kg or PBN 30 mg/kg daily
Description: (§3) During the first nine days animals also received daily intraperitoneal BrdU injections (Sigma, St. Louis, Mo.); dissolved in 0.9% NaCl, filtered sterile at 0.2 μm, 50 μg/g body weight at 10 mg/ml) to label dividing cells.
as §2
To confirm neurogenesis, immunohistochemistry for BrdU was performed on a 1:6 series of free-floating 40-μm coronal sections that were pretreated for BrdU immunohistochemistry by denaturing DNA, as described previously by van Praag et al., Procl. Natl. Acad. Sci. USA 96: 13427-13431 (1999), which is incorporated herein by reference in its entirety. The antibody used was mouse anti-BrdU (Boehringer Mannheim, Indianapolis, Ind.) 1:400. To visualize the BrdU-labeled cells, staining for BrdU with the peroxidase method was used (ABC system, with biotinylated donkey anti-mouse antibodies and diaminobenzadine as chromogen; Vector Laboratories, Burlingame, Calif.). Cells were counted at 40× using an upright brightfield microscope (Olympus).
We are currently processing the tissue of the animals that survived for 38 days to assess the effects of the drugs and exercise on the number of newborn neurons. […]

[3] = test system: dentate gyrus; assay: BrdU-positive cell proliferation in the dentate gyrus (day 10); assay type: in vivo, mice; settings: runners, Mars 20 mg/kg or PBN 30 mg/kg daily
Description: as §3, §2
To confirm neurogenesis, immunohistochemistry for BrdU was performed on a 1:6 series of free-floating 40-μm coronal sections that were pretreated for BrdU immunohistochemistry by denaturing DNA, as described previously by van Praag et al., Procl. Natl. Acad. Sci. USA 96: 13427-13431 (1999), which is incorporated herein by reference in its entirety. The antibody used was mouse anti-BrdU (Boehringer Mannheim, Indianapolis, Ind.) 1:400. […] Cells were counted at 40× using an upright brightfield microscope (Olympus).
BrdU-positive cells were analyzed in mice that were allowed to survive for the first 10 days of the experiment. At this time point cell proliferation, but not neurogenesis can be assessed, since it takes about a month for a newly born cell to become a neuron (van Praag et al., Nature 415: 1030-1034 (2002), which is incorporated herein by reference in its entirety).

[4] = test system: female C57BL/6 mice; assay: Running wheel activity (wheel revolutions); assay type: in vivo; settings: runners, wheel about 4 hours daily after injection; Mars 20 mg/kg or PBN 30 mg/kg daily; compared with Runner/Saline
Description: as §1, with “mg/kg). Mice in the running groups were placed in cages with wheels after drug injection for about 4 hours daily.” for “mg/kg).”

CC(C)(C)[N+]([O-])=Cc1ccccc1 [PBN, N-tert-Butyl-phenylnitrone]
swim speed ([1]; controls (no running wheel)): no difference between the runners and CP; also recorded: significantly faster than CM
spatial memory performance / learning ([1]; mice that exercise): enhances spatial memory performance; also recorded: enhanced learning
latency to the platform, analysis of variance per day ([1]; runners, 8 days of testing): significantly shorter latencies from day 6 onwards
swim speed ([1]; runners): swam faster than CS and CM animals
neurogenesis [2]: enhances neurogenesis
average number of BrdU-labeled cells per section (cell proliferation / cell genesis) [3]: the greatest increase; also recorded: more cell genesis in these animals than in all the other groups
number of wheel revolutions [4]: no difference between RS and RP

From patent US7763588B2, “Method for increasing cognitive function and neurogenesis” (The Salk Institute for Biological Studies, priority 2003, dated 2010)
